# Data reported in patent US8895548B2, “Pharmaceutical composition for treating alzheimer's disease” (Shionogi & Co., Ltd., priority 2007, dated 2014).
# Test system: brain β amyloid 1-40
# Assay: Lowering effect on brain β amyloid in mice
# Assay type: in vivo
# Settings: sc; male Crlj:CD-1(ICR) mouse, 100 mg/kg subcutaneously, brain isolated 3 hours after administration, ELISA; read-out: reduction of brain β amyloid 1-40 compared to vehicle control group
# Description: (§1) A test compound was suspended in 0.5% methylcellulose, the final concentration was adjusted to 2 mg/mL, and this was orally administered to male Crg:SD rat (7 to 9 week old) at 10 mg/kg. In a vehicle control group, only 0.5% methylcellulose was administered, and an administration test was performed at 3 to 8 animals per group. A brain was isolated 3 hours after administration, a cerebral hemisphere was isolated, a weight thereof was measured, the hemisphere was rapidly frozen in liquid nitrogen, and stored at −80° C. until the day for extraction. The frozen cerebral hemisphere was transferred to a homogenizer manufactured by Teflon (registered trade mark) under ice cooling, a 5-fold volume of a weight of an extraction buffer (containing 1% CHAPS ({3-[(3-chloroamidopropyl)dimethylammonio]-1-propanesulfonate}), 20 mM Tris-HCl (pH 8.0), 150 mM NaCl, Complete (Roche) protease inhibitor) was added, up and down movement was repeated, and this was homogenized to solubilize for 2 minutes. The suspension was transferred to a centrifugation tube, allowed to stand on an ice for 3 hours or more and, thereafter centrifuged at 100,000×g and 4° C. for 20 minutes. After centrifugation, the supernatant was transferred to an ELISA plate (product No. 27730, Immuno-Biological Laboratories) for measuring 3 amyloid 1-40. ELISA measurement was performed according to the attached instruction. The lowering effect was calculated as a ratio compared to the brain b amyloid 1-40 level of vehicle control group.
# A test compound was suspended in 0.5% methylcellulose, the final concentration was adjusted to 10 mg/mL, and this was subcutaneously administered to back of male Crlj:CD-1(ICR) mouse (7 to 8 week old) at 100 mg/kg. In a vehicle control group, only 0.5% methylcellulose was administered. A test was performed at 4 to 8 animals per group. A brain was isolated 3 hours after administration. The subsequent operations were the same as in the above test in rat.
row,Structure (SMILES),inhibition in vivo at 100 mg/kg [%]
1,CC1(c2cc(Br)cc(NC(=O)c3ccc(Cl)cn3)c2)CCSC(N)=N1 (centres unmarked) [Compound 165],60 to 90
2,CC1(c2cccc(C(=O)Nc3ccc(Cl)cn3)c2)CCSC(N)=N1 (centres unmarked) [Compound 220],60 to 90
3,Cc1cnc(C(=O)Nc2cccc(C3(C)CCSC(N)=N3)c2)cn1 (centres unmarked) [Compound 309],60 to 90
4,CC1(c2cc(Cl)cc(NC(=O)c3ccc(Cl)cn3)c2)CCSC(N)=N1 (centres unmarked) [Compound 739],60 to 90
5,CC1(c2cccc(NC(=O)c3ncc(Br)cn3)c2)CCSC(N)=N1 (centres unmarked) [Compound 900],60 to 90
6,CC1(c2cc(NC(=O)c3ccc(Cl)cn3)cc(C(F)(F)F)c2)C=C(N)SCC1 (centres unmarked) [Compound 964],60 to 90
7,CC1(c2cc(Br)cc(NC(=O)c3cc4ccccc4s3)c2)CCSC(N)=N1 (centres unmarked) [Compound 1014],60 to 90
8,CC1(c2cc(Br)cc(NC(=O)c3ccc(Br)cc3)c2)CCSC(N)=N1 (centres unmarked) [Compound 1262],60 to 90
9,CC1(c2cccc(NC(=O)c3cnc(N=[N+]=N)cn3)c2)CCSC(N)=N1 (centres unmarked) [Compound 1266],60 to 90

# Same assay, conditions: sc; male Crlj:CD-1(ICR) mouse, 100 mg/kg subcutaneously, brain isolated 3 hours after administration; read-out: brain β amyloid 1-40, % of vehicle control group
row,Structure (SMILES),response vs control in vivo at 100 mg/kg [%]
1,CC1(c2cccc(NC(=O)c3ncc(Cl)cc3Cl)c2)CCSC(N)=N1 (centres unmarked) [Compound 127],25.2
2,CC1(c2cc(NC(=O)c3ccc(C(F)(F)F)cn3)ccc2F)CCSC(N)=N1 (centres unmarked) [Compound 396],38.4
3,CC1(c2cc(NC(=O)c3ccc(F)cn3)ccc2F)CCSC(N)=N1 (centres unmarked) [Compound 605],36.5
4,CC1(c2cc(NC(=O)c3ccc(Cl)cn3)ccc2F)CCSC(N)=N1 (centres unmarked) [Compound 1043],15
5,CC1(c2cc(NC(=O)c3ccc(Cl)cn3)ccc2Cl)CCSC(N)=N1 (centres unmarked) [Compound 1199],14.1
6,CC1(c2cccc(NC(=O)c3ccc(C(F)(F)F)cn3)c2)CCSC(N)=N1 (centres unmarked) [Compound 1244],50.1

# Test system: brain β amyloid 1-40
# Assay: Lowering effect on brain β amyloid in mice
# Assay type: in vivo
# Settings: sc; male Crlj:CD-1(ICR) mouse, 3 hours after 30 mg/kg of subcutaneous administration; read-out: brain β amyloid 1-40, % of vehicle control group
row,Structure (SMILES),response vs control in vivo at 30 mg/kg [%]
1,CC1(c2cccc(NC(=O)c3ccc(C#N)cn3)c2)CCSC(N)=N1 (centres unmarked) [Compound 651],52.3

# Test system: not given
# Assay: not given
# Settings: not given
row,Structure (SMILES),melting point [°C]
1,CC1(C2=CC=C(F)CC2)CCCSC(N)=N1.Cl (centres unmarked),219 to 222
2,C[C@]1(c2ccccc2)C[C@@H](c2ccccc2)SC(N)=N1.Cl,161 to 165
3,CC1(C2=CC=CCC2)CCCSC(N)=N1.Cl (centres unmarked),223 to 225
4,C[C@]1(c2ccccc2)C[C@H](c2ccccc2)SC(N)=N1 (racemic) [Compound 835],139 to 140
5,COc1ccc([C@]2(C)N=C(N)SC[C@H]2C)cc1 [Compound 8],214 to 217
6,COc1ccc([C@@]2(C)C[C@H](C)SC(N)=N2)cc1 [Compound 86],141 to 142
7,CC1(c2cccc(NC(=O)C3CN=CC=N3)c2)CCSC(N)=N1 (centres unmarked) [Compound 164],91 to 96
8,C[C@@]1(c2cc(NC(=O)c3n[nH]c4ccccc34)ccc2F)CCSC(N)=N1 [Compound 241],187 to 190
9,CC1(c2cccc(CO)c2)CCSC(N)=N1 (centres unmarked) [Compound 501],155 to 158
10,CC1(c2cccc(NC(=O)c3ncc(Cl)cn3)c2)CCSC(N)=N1 (centres unmarked) [Compound 515],204 to 208
11,CC1(C2C=C(/C=N/OCc3cccnc3)C=CC2)CCSC(N)=N1 (centres unmarked) [Compound 584],152 to 153
12,COC(=O)c1cc(C(=O)Nc2cccc(C3(C)CCSC(N)=N3)c2)nn1C (centres unmarked) [Compound 687],164 to 187
13,C[C@@]1(C2C=C(NC(=O)c3ncc(Cl)cc3N)C=CC2)CCSC(N)=N1 (some centres unmarked) [Compound 743],148 to 150
14,CC1(c2ccccc2)CCN=C(N)S1.Cl (centres unmarked) [Compound 783],205 to 206
15,CC1(c2cc(NC(=O)c3ccc(Cl)cn3)cc(C(F)(F)F)c2)C=C(N)SCC1 (centres unmarked) [Compound 964],185 to 187
16,CC1(c2ccc(OC3C=CC=CC3)cc2)CCSC(N)=N1 (centres unmarked) [Compound 1055],169 to 170
17,Cc1ccc(OC2=CCC(C3(C)CCSC(N)=N3)C=C2)cc1 (centres unmarked) [Compound 1067],162 to 165
18,CC1(c2ccc(F)c(C(=O)NC3=CC(Cl)CC=N3)c2)CCSC(N)=N1 (centres unmarked) [Compound 1068],132 to 134
19,CCS/C(N)=N\C(C)C1C=C(NC(=O)c2cnc3ccccc3n2)C=CC1 (centres unmarked) [Compound 1115],167 to 170
20,CC1(c2ccc(F)c(N3N=C4c5cc(Cl)ccc5NCC4C3=O)c2)CCSC(N)=N1 (centres unmarked) [Compound 1166],290 to 295

# Test system: brain β amyloid 1-40
# Assay: Lowering effect on brain β amyloid in rats
# Assay type: in vivo
# Settings: male Crg:SD rat, 10 mg/kg orally, brain isolated 3 hours after administration
# Description: as §1
row,Structure (SMILES),"brain β amyloid 1-40, % of vehicle control group"
1,Cc1cnc(C(=O)Nc2ccc(F)c([C@]3(C)CCSC(N)=N3)c2)cn1 [Compound 622],50.1 % of vehicle control group
2,COc1cnc(C(=O)Nc2ccc(F)c([C@]3(C)CCSC(N)=N3)c2)cn1 [Compound 634],21.1 % of vehicle control group

# Same assay, conditions: po; male Crg:SD rat, 10 mg/kg orally, brain isolated 3 hours after administration, ELISA; read-out: reduction of brain β amyloid 1-40 compared to vehicle control group
row,Structure (SMILES),inhibition in vivo at 10 mg/kg [%]
1,C[C@@]1(c2cccc(NC(=O)c3ncc(Cl)cc3Cl)c2)CCSC(N)=N1 [Compound 39],60 to 90
2,CC1(c2cc(NC(=O)c3ncc(Cl)cn3)ccc2F)CCSC(N)=N1 (centres unmarked) [Compound 204],60 to 90
3,CC1(c2cccc(NC(=O)c3ccc(F)cn3)c2)CCSC(N)=N1 (centres unmarked) [Compound 212],60 to 90
4,COc1cnc(C(=O)Nc2cccc(C3(C)CCSC(N)=N3)c2)cn1 (centres unmarked) [Compound 243],60 to 90
5,Cc1cnc(C(=O)Nc2ccc(F)c(C3(C)CCSC(N)=N3)c2)cn1 (centres unmarked) [Compound 359],60 to 90
6,CC1(c2cccc(NC(=O)c3ncc(C(F)(F)F)cc3Cl)c2)CCSC(N)=N1 (centres unmarked) [Compound 482],60 to 90
7,C[C@@]1(c2cccc(NC(=O)c3cnc(O)cn3)c2)CCSC(N)=N1 [Compound 733],60 to 90
8,CC1(c2cccc(NC(=O)c3ccc(Cl)cn3)c2)CCSC(N)=N1 (centres unmarked) [Compound 793],60 to 90
9,Cc1cc(C(=O)Nc2ccc(F)c(C3(C)CCSC(N)=N3)c2)c(C)o1 (centres unmarked) [Compound 1282],60 to 90
